Laboratory results from PubChem BioAssay (NCI).
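Dose response: 5 concentrations. Exposure: 48 h. Format: 96-well plates. Endpoint: linear interpolation; highest concentration if not reached. Definition used: TGI = concentration required for complete inhibition of growth.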

Experiments:
Assay in all cases: NCI anticancer screen, dose series, 48 h
OVCAR-8 ovarian = system: OVCAR-8 ovarian
OVCAR-4 ovarian = system: OVCAR-4 ovarian
MALME-3M melanoma = system: MALME-3M melanoma
EKVX NSCLC = system: EKVX NSCLC
CAKI-1 renal = system: CAKI-1 renal
PC-3 prostate = system: PC-3 prostate
SW-620 colon = system: SW-620 colon
DU-145 prostate = system: DU-145 prostate
HT29 colon = system: HT29 colon
SK-MEL-28 melanoma = system: SK-MEL-28 melanoma
A498 renal = system: A498 renal
NCI/ADR-RES ovarian = system: NCI/ADR-RES ovarian
IGROV1 ovarian = system: IGROV1 ovarian
SK-OV-3 ovarian = system: SK-OV-3 ovarian
M14 melanoma = system: M14 melanoma
OVCAR-3 ovarian = system: OVCAR-3 ovarian
OVCAR-5 ovarian = system: OVCAR-5 ovarian
RXF 393 renal = system: RXF 393 renal
NCI-H460 lung = system: NCI-H460 lung
SR leukemia = system: SR leukemia

Row | SMILES | TGI (OVCAR-8 ovarian) | TGI (OVCAR-4 ovarian) | TGI (MALME-3M melanoma) | TGI (EKVX NSCLC) | TGI (CAKI-1 renal) | TGI (PC-3 prostate) | TGI (SW-620 colon) | TGI (DU-145 prostate) | TGI (HT29 colon) | TGI (SK-MEL-28 melanoma) | TGI (A498 renal) | TGI (NCI/ADR-RES ovarian) | TGI (IGROV1 ovarian) | TGI (SK-OV-3 ovarian) | TGI (M14 melanoma) | TGI (OVCAR-3 ovarian) | TGI (OVCAR-5 ovarian) | TGI (RXF 393 renal) | TGI (NCI-H460 lung) | TGI (SR leukemia)
1 | COC(=O)c1ccc2c(c1)CC1(C2)Cc2cc3c(cc2C1=O)CCC3 (stereo not drawn) | > 100 µM | > 100 µM | 82.8 µM | > 100 µM | 96.5 µM | > 100 µM | > 100 µM | > 100 µM | 34.7 µM | > 100 µM | > 100 µM | 51.3 µM | > 100 µM | > 100 µM | 42.2 µM | 87.8 µM | > 100 µM | > 100 µM | > 100 µM | –
2 | CSc1nc(Cl)c2c(n1)Sc1nc3cc4c(cc3n1C2O)OCO4 (stereo not drawn) | 3.85 µM | > 100 µM | 63.9 µM | > 100 µM | > 100 µM | > 60.3 µM | > 81.8 µM | > 100 µM | 7.55 µM | > 100 µM | 40.4 µM | 5.72 µM | > 72.2 µM | > 75.3 µM | > 43.9 µM | 7.3 µM | > 100 µM | > 51.9 µM | > 32 µM | –
3 | Cc1[nH]c(=O)[nH]c(=S)c1C(=O)NC(C)(CO)CO | > 100 µM | > 100 µM | > 100 µM | > 100 µM | > 100 µM | > 100 µM | > 100 µM | > 100 µM | > 100 µM | > 100 µM | > 100 µM | > 100 µM | > 100 µM | > 100 µM | > 100 µM | > 100 µM | > 100 µM | > 100 µM | > 100 µM | –
4 | CCOC(=O)C(=C(SC)SC)c1nn2c(=O)cc(C)nc2s1 | 43.9 µM | > 100 µM | 32.3 µM | 53.8 µM | 60.1 µM | 56.6 µM | 41.3 µM | 30.1 µM | 35.8 µM | 31.3 µM | – | 90.4 µM | 47.5 µM | > 100 µM | 29.4 µM | 35 µM | 67.2 µM | 47.5 µM | 60.7 µM | 61.3 µM
5 | S=C1Cc2c([nH]c3ccccc23)-c2ccccc2N1 | > 100 µM | > 100 µM | > 100 µM | > 100 µM | 79 µM | > 100 µM | > 100 µM | > 100 µM | > 100 µM | > 100 µM | – | > 100 µM | > 100 µM | 64.4 µM | > 100 µM | > 100 µM | > 100 µM | 46 µM | > 100 µM | > 100 µM
6 | CCOc1cc(NC(C)=O)ccc1C(=O)NN1C(=O)C(Oc2ccccc2)C1c1ccc(O)c(OC)c1 (stereo not drawn) | 96.8 µM | > 100 µM | – | > 100 µM | > 100 µM | > 100 µM | > 100 µM | > 100 µM | > 100 µM | > 100 µM | – | > 100 µM | > 100 µM | > 100 µM | > 100 µM | > 100 µM | > 100 µM | > 100 µM | – | > 100 µM
7 | CC(=O)O[C@@H]1C=C(C)[C@H](CBr)O[C@@]2(C)CC[C@H](Br)C(C)(C)[C@H]12 | > 100 µM | > 100 µM | – | > 100 µM | > 100 µM | > 100 µM | > 100 µM | > 100 µM | > 100 µM | > 100 µM | > 100 µM | > 100 µM | > 100 µM | > 100 µM | > 100 µM | – | > 100 µM | > 100 µM | > 100 µM | > 100 µM
8 | COc1cccc(C2c3cc4c(cc3OC(N3CCCC3)C2C)OCO4)c1 (stereo not drawn) | > 100 µM | – | – | 94.1 µM | 8.61 µM | 46.9 µM | > 100 µM | 58.6 µM | 18.4 µM | 32.9 µM | – | 33.5 µM | 38.7 µM | – | 21.1 µM | 28.6 µM | 82.1 µM | – | – | 21.4 µM
9 | COC(=O)CCC(=O)NC1c2cccc3cccc(c23)Cn2c(=O)n(C)c(=O)n21 (stereo not drawn) | > 100 µM | > 100 µM | > 100 µM | > 100 µM | > 100 µM | > 100 µM | > 100 µM | > 100 µM | > 100 µM | > 100 µM | – | > 100 µM | > 100 µM | > 100 µM | > 100 µM | > 100 µM | > 100 µM | > 100 µM | > 100 µM | > 100 µM
10 | COc1ccc2c(c1)OCc1c-2oc2ccccc2c1=O | > 100 µM | – | > 100 µM | > 100 µM | > 100 µM | > 100 µM | – | > 100 µM | > 100 µM | – | > 100 µM | > 100 µM | > 100 µM | > 100 µM | > 100 µM | > 100 µM | > 100 µM | – | – | > 100 µM
